Measured values taken from the kinase profiling compilation of Christmann-Franck et al. (2016).

How the values were obtained:
Experiment in all cases: KINOMEscan competition binding
Conditions in all cases: compound 10.0 µM
EPHA5 (human) = EPHA5 (human) (UniProt P54756)
DSTYK (human) = DSTYK (human) (UniProt Q6XUX3)
RPS6KA4 KD1 (human) = RPS6KA4 KD1 (human) (UniProt O75676)
IRAK1 (human) = IRAK1 (human) (UniProt P51617)
ROCK1 (human) = ROCK1 (human) (UniProt Q13464)
CDK18 (human) = CDK18 (human) (UniProt Q07002)
INSRR (human) = INSRR (human) (UniProt P14616)
LIMK2 (human) = LIMK2 (human) (UniProt P53671)
MAP3K3 (human) = MAP3K3 (human) (UniProt Q99759)
PKN2 (human) = PKN2 (human) (UniProt Q16513)
ZAP70 (human) = ZAP70 (human) (UniProt P43403)
EPHB3 (human) = EPHB3 (human) (UniProt P54753)
RIOK2 (human) = RIOK2 (human) (UniProt Q9BVS4)
NEK2 (human) = NEK2 (human) (UniProt P51955)
DAPK2 (human) = DAPK2 (human) (UniProt Q9UIK4)
FGR (human) = FGR (human) (UniProt P09769)
EPHB1 (human) = EPHB1 (human) (UniProt P54762)
DCLK2 (human) = DCLK2 (human) (UniProt Q8N568)
MAP3K7 (human) = MAP3K7 (human) (UniProt O43318)
[1] = target: JAK1 JH2 pseudokinase (human) (UniProt P23458)
PRKCI (human) = PRKCI (human) (UniProt P41743)
STK17A (human) = STK17A (human) (UniProt Q9UEE5)
MAP3K1 (human) = MAP3K1 (human) (UniProt Q13233)
PRKCQ (human) = PRKCQ (human) (UniProt Q04759)
MAP3K4 (human) = MAP3K4 (human) (UniProt Q9Y6R4)
DDR2 (human) = DDR2 (human) (UniProt Q16832)
MARK2 (human) = MARK2 (human) (UniProt Q7KZI7)
PDGFRB (human) = PDGFRB (human) (UniProt P09619)
CASK (human) = CASK (human) (UniProt O14936)
CDK4 CCND3 (human) = CDK4 CCND3 (human) (UniProt P11802+P30281)
LTK (human) = LTK (human) (UniProt P29376)
SIK3 (human) = SIK3 (human) (UniProt Q9Y2K2)
MAP4K2 (human) = MAP4K2 (human) (UniProt Q12851)
ANKK1 (human) = ANKK1 (human) (UniProt Q8NFD2)
PHKG2 (human) = PHKG2 (human) (UniProt P15735)
WEE1 (human) = WEE1 (human) (UniProt P30291)
EPHA6 (human) = EPHA6 (human) (UniProt Q9UF33)
DCLK3 (human) = DCLK3 (human) (UniProt Q9C098)
MAP2K5 (human) = MAP2K5 (human) (UniProt Q13163)
FES (human) = FES (human) (UniProt P07332)
FES (human), sequence (P07332 whole entry, looked up): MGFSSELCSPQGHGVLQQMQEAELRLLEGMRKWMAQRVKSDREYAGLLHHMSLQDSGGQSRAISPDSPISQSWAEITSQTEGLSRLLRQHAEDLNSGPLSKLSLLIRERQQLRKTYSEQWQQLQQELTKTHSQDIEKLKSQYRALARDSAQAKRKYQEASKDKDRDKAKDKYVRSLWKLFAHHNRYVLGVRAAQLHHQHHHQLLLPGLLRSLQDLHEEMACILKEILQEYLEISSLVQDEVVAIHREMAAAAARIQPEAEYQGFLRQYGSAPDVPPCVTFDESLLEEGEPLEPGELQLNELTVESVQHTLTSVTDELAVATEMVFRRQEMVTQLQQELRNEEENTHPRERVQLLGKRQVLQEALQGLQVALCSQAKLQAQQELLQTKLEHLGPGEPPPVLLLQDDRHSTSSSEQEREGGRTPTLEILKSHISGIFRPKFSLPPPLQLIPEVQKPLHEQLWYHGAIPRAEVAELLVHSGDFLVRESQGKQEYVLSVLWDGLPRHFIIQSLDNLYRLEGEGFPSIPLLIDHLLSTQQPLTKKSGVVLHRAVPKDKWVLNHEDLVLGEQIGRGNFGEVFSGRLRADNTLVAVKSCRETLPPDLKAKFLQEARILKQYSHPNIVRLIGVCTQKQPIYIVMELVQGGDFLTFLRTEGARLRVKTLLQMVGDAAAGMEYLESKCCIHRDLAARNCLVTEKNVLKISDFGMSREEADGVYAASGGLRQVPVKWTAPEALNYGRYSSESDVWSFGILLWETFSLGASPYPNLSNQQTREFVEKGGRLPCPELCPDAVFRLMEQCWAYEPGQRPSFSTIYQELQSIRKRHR

DCLK3 (human), sequence (Q9C098 whole entry, looked up): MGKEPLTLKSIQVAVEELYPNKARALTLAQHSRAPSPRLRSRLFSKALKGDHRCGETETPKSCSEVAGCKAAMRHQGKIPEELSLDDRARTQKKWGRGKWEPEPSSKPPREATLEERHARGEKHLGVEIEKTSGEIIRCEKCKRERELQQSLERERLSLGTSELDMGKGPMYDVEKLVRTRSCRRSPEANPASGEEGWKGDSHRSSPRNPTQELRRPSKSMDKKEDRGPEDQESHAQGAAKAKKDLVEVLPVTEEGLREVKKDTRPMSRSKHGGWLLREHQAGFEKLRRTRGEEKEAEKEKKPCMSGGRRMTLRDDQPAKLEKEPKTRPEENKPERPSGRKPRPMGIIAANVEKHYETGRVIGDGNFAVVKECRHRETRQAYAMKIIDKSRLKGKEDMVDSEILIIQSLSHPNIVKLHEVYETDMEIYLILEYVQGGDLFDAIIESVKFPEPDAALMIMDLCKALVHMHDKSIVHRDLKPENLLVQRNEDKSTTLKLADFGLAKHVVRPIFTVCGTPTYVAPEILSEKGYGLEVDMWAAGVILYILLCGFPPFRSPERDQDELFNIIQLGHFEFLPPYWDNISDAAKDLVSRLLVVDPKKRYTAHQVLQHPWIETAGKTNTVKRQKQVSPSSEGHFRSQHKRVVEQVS
ANKK1 (human), sequence (Q8NFD2 whole entry, looked up): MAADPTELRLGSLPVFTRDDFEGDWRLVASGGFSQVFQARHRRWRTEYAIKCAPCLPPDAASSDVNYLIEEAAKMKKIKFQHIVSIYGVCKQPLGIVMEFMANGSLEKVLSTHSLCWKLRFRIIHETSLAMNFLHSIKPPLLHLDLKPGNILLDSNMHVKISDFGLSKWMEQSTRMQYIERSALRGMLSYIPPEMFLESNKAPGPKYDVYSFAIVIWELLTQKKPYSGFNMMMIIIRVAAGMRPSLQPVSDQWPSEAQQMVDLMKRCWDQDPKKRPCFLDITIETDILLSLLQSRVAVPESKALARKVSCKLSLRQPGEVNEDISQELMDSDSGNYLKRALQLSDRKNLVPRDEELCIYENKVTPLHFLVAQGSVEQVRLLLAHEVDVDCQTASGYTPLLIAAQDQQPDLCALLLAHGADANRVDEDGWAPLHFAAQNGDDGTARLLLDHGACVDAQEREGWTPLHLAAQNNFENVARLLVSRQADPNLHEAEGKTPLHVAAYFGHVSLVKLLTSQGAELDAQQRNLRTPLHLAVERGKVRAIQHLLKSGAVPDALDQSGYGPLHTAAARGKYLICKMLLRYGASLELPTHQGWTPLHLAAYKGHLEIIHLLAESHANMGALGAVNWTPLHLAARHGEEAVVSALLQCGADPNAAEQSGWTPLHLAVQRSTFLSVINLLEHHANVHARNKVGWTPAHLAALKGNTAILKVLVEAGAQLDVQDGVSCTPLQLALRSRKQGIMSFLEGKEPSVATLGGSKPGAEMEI
PRKCI (human), sequence (P41743 whole entry, looked up): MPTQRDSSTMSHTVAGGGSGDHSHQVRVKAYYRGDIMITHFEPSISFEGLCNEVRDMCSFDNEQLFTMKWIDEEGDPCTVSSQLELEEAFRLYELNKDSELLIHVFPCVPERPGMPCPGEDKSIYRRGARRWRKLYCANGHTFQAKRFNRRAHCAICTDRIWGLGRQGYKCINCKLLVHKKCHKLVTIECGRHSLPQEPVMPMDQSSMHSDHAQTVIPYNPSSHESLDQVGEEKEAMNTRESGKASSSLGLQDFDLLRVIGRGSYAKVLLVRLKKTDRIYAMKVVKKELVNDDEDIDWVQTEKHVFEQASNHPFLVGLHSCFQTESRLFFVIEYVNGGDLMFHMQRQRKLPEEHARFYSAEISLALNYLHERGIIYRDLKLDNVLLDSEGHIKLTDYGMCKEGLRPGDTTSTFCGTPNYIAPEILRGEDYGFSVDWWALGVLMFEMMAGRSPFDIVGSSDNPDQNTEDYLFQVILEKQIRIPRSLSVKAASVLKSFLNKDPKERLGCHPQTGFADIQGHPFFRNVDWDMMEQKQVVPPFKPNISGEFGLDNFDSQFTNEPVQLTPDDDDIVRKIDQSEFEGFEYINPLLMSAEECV
MAP2K5 (human), sequence (Q13163 whole entry, looked up): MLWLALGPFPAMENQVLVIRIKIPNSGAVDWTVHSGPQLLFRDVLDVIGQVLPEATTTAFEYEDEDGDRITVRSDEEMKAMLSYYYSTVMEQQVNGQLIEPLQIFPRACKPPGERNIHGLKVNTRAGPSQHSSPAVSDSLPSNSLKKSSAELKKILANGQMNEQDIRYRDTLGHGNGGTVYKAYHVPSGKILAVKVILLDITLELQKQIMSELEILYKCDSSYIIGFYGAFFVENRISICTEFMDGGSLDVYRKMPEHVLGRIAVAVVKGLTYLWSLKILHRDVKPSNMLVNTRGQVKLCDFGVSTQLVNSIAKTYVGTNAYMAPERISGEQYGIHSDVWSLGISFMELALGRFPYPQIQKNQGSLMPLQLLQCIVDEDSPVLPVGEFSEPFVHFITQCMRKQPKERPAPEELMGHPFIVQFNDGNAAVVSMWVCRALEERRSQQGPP
EPHB3 (human), sequence (P54753 whole entry, looked up): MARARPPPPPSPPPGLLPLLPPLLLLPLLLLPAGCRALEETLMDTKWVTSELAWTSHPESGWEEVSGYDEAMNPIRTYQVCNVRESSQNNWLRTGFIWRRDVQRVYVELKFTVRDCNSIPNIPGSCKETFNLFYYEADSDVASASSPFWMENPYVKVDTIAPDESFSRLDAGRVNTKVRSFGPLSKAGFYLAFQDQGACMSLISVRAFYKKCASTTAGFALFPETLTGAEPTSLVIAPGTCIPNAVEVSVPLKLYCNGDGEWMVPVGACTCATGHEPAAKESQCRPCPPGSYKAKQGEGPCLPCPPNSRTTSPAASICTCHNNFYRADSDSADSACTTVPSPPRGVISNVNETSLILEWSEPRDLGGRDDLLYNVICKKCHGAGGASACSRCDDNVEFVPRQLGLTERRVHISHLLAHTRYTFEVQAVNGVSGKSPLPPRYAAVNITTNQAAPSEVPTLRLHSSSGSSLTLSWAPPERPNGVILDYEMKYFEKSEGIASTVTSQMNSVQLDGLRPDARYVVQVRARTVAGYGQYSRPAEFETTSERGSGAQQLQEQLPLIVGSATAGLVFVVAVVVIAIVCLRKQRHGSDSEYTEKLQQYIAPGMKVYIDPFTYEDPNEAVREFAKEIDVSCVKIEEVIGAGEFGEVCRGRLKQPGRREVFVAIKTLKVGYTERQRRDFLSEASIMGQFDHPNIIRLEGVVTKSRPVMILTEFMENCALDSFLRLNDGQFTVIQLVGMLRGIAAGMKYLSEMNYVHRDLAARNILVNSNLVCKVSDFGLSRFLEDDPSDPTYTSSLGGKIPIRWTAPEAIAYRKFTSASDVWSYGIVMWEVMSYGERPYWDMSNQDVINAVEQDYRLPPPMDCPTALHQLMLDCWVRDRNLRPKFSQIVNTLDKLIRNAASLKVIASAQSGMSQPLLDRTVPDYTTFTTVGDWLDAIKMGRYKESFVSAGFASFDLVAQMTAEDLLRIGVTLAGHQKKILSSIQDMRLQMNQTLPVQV
CDK18 (human), sequence (Q07002 whole entry, looked up): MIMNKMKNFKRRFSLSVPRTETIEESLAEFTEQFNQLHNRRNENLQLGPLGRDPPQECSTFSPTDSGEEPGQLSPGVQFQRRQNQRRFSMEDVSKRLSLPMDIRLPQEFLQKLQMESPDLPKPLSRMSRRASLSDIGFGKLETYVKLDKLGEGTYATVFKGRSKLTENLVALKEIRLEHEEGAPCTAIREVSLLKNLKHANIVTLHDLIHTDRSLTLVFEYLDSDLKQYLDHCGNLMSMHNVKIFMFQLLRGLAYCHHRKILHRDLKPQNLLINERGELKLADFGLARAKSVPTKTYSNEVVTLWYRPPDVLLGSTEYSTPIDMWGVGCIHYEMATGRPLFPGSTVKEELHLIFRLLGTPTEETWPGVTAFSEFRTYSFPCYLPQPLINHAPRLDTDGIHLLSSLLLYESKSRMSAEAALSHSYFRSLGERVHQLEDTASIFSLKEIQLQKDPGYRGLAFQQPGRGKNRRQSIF

SMILES	kinase still bound, per cent of control (EPHA5 (human))	kinase still bound, per cent of control (DSTYK (human))	kinase still bound, per cent of control (RPS6KA4 KD1 (human))	kinase still bound, per cent of control (IRAK1 (human))	kinase still bound, per cent of control (ROCK1 (human))	kinase still bound, per cent of control (INSRR (human))	kinase still bound, per cent of control (MAP3K3 (human))	kinase still bound, per cent of control (PKN2 (human))	kinase still bound, per cent of control (ZAP70 (human))	kinase still bound, per cent of control (EPHB3 (human))	kinase still bound, per cent of control (RIOK2 (human))	kinase still bound, per cent of control (NEK2 (human))	kinase still bound, per cent of control (DAPK2 (human))	kinase still bound, per cent of control (FGR (human))	kinase still bound, per cent of control (EPHB1 (human))	kinase still bound, per cent of control (DCLK2 (human))	kinase still bound, per cent of control (MAP3K7 (human))	kinase still bound, per cent of control (PRKCI (human))	kinase still bound, per cent of control (STK17A (human))	kinase still bound, per cent of control (MAP3K1 (human))	further results
O=C(Nc1cccc(Nc2ncc(Br)c(NCCc3cnc[nH]3)n2)c1)N1CCCC1	92%	36%	2.1%	0.25%	0.6%	4.8%	0.3%	4.6%	7.1%	100%	36%	6.2%	22%	13%	85%	70%	1.3%	45%	0.2%	34%	kinase still bound, per cent of control (CDK18 (human)): 100%; kinase still bound, per cent of control (LIMK2 (human)): 59%; kinase still bound, per cent of control [1]: 0.2%; kinase still bound, per cent of control (PRKCQ (human)): 3.6%; kinase still bound, per cent of control (MAP3K4 (human)): 47%; kinase still bound, per cent of control (DDR2 (human)): 65%; kinase still bound, per cent of control (MARK2 (human)): 0.4%; kinase still bound, per cent of control (PDGFRB (human)): 0%; kinase still bound, per cent of control (CASK (human)): 67%; kinase still bound, per cent of control (CDK4 CCND3 (human)): 0.35%; kinase still bound, per cent of control (LTK (human)): 66%; kinase still bound, per cent of control (SIK3 (human)): 7%; kinase still bound, per cent of control (MAP4K2 (human)): 0.15%; kinase still bound, per cent of control (ANKK1 (human)): 4.3%; kinase still bound, per cent of control (PHKG2 (human)): 8.9%; kinase still bound, per cent of control (WEE1 (human)): 52%; kinase still bound, per cent of control (EPHA6 (human)): 54%; kinase still bound, per cent of control (DCLK3 (human)): 48%; kinase still bound, per cent of control (MAP2K5 (human)): 0.6%; kinase still bound, per cent of control (FES (human)): 33%
N#CCNC(=O)c1ccc(-c2ccnc(Nc3ccc(N4CCOCC4)cc3)n2)cc1	87%	38%	100%	1.3%	2.9%	100%	51%	47%	91%	100%	68%	77%	41%	92%	91%	55%	49%	75%	0.2%	92%	kinase still bound, per cent of control (LIMK2 (human)): 68%; kinase still bound, per cent of control [1]: 100%; kinase still bound, per cent of control (PRKCQ (human)): 100%; kinase still bound, per cent of control (MAP3K4 (human)): 92%; kinase still bound, per cent of control (DDR2 (human)): 100%; kinase still bound, per cent of control (MARK2 (human)): 43%; kinase still bound, per cent of control (PDGFRB (human)): 2.2%; kinase still bound, per cent of control (CASK (human)): 100%; kinase still bound, per cent of control (CDK4 CCND3 (human)): 13%; kinase still bound, per cent of control (LTK (human)): 100%; kinase still bound, per cent of control (SIK3 (human)): 100%; kinase still bound, per cent of control (MAP4K2 (human)): 40%; kinase still bound, per cent of control (ANKK1 (human)): 100%; kinase still bound, per cent of control (PHKG2 (human)): 23%; kinase still bound, per cent of control (WEE1 (human)): 100%; kinase still bound, per cent of control (EPHA6 (human)): 98%; kinase still bound, per cent of control (DCLK3 (human)): 0.45%; kinase still bound, per cent of control (MAP2K5 (human)): 100%; kinase still bound, per cent of control (FES (human)): 100%
COc1cc2ncn(-c3cc(OCc4ccccc4C(F)(F)F)c(C(N)=O)s3)c2cc1OC	90%	88%	69%	54%	4.7%	100%	74%	39%	95%	76%	66%	14%	36%	63%	96%	99%	66%	72%	100%	1.6%	kinase still bound, per cent of control (CDK18 (human)): 83%; kinase still bound, per cent of control [1]: 100%; kinase still bound, per cent of control (MAP3K4 (human)): 90%; kinase still bound, per cent of control (DDR2 (human)): 81%; kinase still bound, per cent of control (MARK2 (human)): 50%; kinase still bound, per cent of control (PDGFRB (human)): 5.3%; kinase still bound, per cent of control (CASK (human)): 93%; kinase still bound, per cent of control (CDK4 CCND3 (human)): 100%; kinase still bound, per cent of control (LTK (human)): 100%; kinase still bound, per cent of control (SIK3 (human)): 76%; kinase still bound, per cent of control (MAP4K2 (human)): 53%; kinase still bound, per cent of control (ANKK1 (human)): 80%; kinase still bound, per cent of control (PHKG2 (human)): 100%; kinase still bound, per cent of control (WEE1 (human)): 83%; kinase still bound, per cent of control (EPHA6 (human)): 59%; kinase still bound, per cent of control (DCLK3 (human)): 100%; kinase still bound, per cent of control (MAP2K5 (human)): 0.45%; kinase still bound, per cent of control (FES (human)): 87%
COCC(=O)NC/C=C/c1ccc2ncnc(Nc3ccc(Oc4ccc(C)nc4)c(C)c3)c2c1	100%	75%	97%	100%	100%	100%	100%	99%	100%	86%	100%	100%	89%	89%	100%	100%	100%	93%	84%	100%	kinase still bound, per cent of control (CDK18 (human)): 99%; kinase still bound, per cent of control (LIMK2 (human)): 100%; kinase still bound, per cent of control (PRKCQ (human)): 100%; kinase still bound, per cent of control (MAP3K4 (human)): 97%; kinase still bound, per cent of control (DDR2 (human)): 100%; kinase still bound, per cent of control (PDGFRB (human)): 46%; kinase still bound, per cent of control (CASK (human)): 100%; kinase still bound, per cent of control (CDK4 CCND3 (human)): 100%; kinase still bound, per cent of control (LTK (human)): 88%; kinase still bound, per cent of control (SIK3 (human)): 76%; kinase still bound, per cent of control (MAP4K2 (human)): 100%; kinase still bound, per cent of control (ANKK1 (human)): 60%; kinase still bound, per cent of control (PHKG2 (human)): 86%; kinase still bound, per cent of control (WEE1 (human)): 100%; kinase still bound, per cent of control (EPHA6 (human)): 96%; kinase still bound, per cent of control (DCLK3 (human)): 83%; kinase still bound, per cent of control (MAP2K5 (human)): 0.2%; kinase still bound, per cent of control (FES (human)): 100%
